Values quoted from earlier work as cited in patent US12655168B2, “Isolation of steviol glycosides” (DSM IP ASSETS B.V., priority 2019, dated 2026).

Legend:
[1] = relative to sucrose
[2] = Type II diabetics
[3] = mildly hypertensive patients
[4] = new hemihydrate crystal form; obtained after heating and cooling a 0.06% reb B solution to room temperature

## C=C1C[C@@]23CC[C@H]4[C@@](C)(CCC[C@@]4(C)C(=O)O[C@@H]4O[C@H](CO)[C@@H](O)[C@H](O)[C@H]4O[C@@H]4O[C@H](CO)[C@@H](O)[C@H](O)[C@H]4O)[C@@H]2CC[C@]1(O[C@@H]1O[C@H](CO)[C@@H](O)[C@H](O[C@@H]2O[C@H](CO)[C@@H](O)[C@H](O)[C@H]2O)[C@H]1O[C@@H]1O[C@H](CO)[C@@H](O)[C@H](O)[C@H]1O)C3 [rebaudioside D]
[1]
  times sweeter than sucrose: about 200 times

## C=C1C[C@@]23CC[C@H]4[C@@](C)(CCC[C@@]4(C)C(=O)O[C@@H]4O[C@H](CO)[C@@H](O)[C@H](O)[C@H]4O)[C@@H]2CC[C@]1(O[C@@H]1O[C@H](CO)[C@@H](O)[C@H](O)[C@H]1O[C@@H]1O[C@H](CO)[C@@H](O)[C@H](O)[C@H]1O)C3 [Stevioside]
[2]
  effect on blood glucose levels: reduce blood glucose levels
[3]
  effect on blood pressure: reduce blood pressure

## rebaudioside B
[4]
  solubility in water: 50 ppm
